biological target: (G4C2)8 hairpin RNA; test: Binding affinity to (G4C2)8 hairpin RNA (unknown origin) by TO-PRO-1 dye displacement assay

Row | Kd | Compound
1 | 0.9 µM | Cc1c2cc[n+](C)cc2c(C)c2c1[nH]c1ccc(O)cc12
2 | 1.4 µM | CCN(CC)CC[n+]1ccc2c(C)c3[nH]c4ccc(O)cc4c3c(C)c2c1
3 | 16 µM | CCN(CC)CCNC(=O)c1cc2cc(NC(=O)c3cc4cc(N)ccc4[nH]3)ccc2[nH]1
4 | 10 µM | N=C(N)c1ccc(Nc2ccc(-c3cc4ccc(C(=N)N)cc4[nH]3)cc2)cc1

biological target: T1, TAR DNA-binding protein 43 (Homo sapiens, UniProt Q13148); test: Binding affinity to TDP-43 (unknown origin)
T1 sequence (Q13148 whole entry): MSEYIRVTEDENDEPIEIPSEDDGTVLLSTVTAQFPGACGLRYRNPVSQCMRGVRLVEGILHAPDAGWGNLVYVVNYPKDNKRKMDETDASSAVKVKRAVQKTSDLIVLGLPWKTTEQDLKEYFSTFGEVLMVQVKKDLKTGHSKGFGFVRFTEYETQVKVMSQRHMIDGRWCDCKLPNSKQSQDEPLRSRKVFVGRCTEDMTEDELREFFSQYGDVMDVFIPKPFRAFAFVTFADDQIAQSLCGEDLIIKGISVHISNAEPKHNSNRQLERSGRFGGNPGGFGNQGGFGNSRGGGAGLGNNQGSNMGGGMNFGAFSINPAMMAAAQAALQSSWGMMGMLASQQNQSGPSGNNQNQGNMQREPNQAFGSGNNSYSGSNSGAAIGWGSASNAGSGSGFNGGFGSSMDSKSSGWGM

Row | Kd | Compound
5 | 89 µM | NC(=O)c1cncc(N2CCCC(CO)(Cc3ccc(F)cc3)C2)n1 (stereo not given)

biological target: T1, TAR DNA-binding protein 43; test: Inhibition of TDP-43 (unknown origin) binding to RNA

Row | IC50 | Compound
6 | 0.1 µM | COc1cc(NC(=O)CCC2CCCN(Cc3ccc(F)c(OC)c3)C2)cc(OC)c1 (stereo not given)
7 | > 0.1 µM | CCc1cccc(C)c1NS(=O)(=O)c1cnccc1C(=O)N1CCCC1
8 | 20 µM | NC(=O)CCCCC1CCSS1 (racemic) [THIOCTIC ACID AMIDE]
9 | 20 µM | O=C(O)CCCC[C@@H]1CCSS1 [THIOCTIC ACID]

Row | Compound | IC50
10 | O=C1c2c(O)ccc(O)c2C(=O)c2c(NCCNCCO)ccc(NCCNCCO)c21 [MITOXANTRONE] | 10 µM

Reference: ChEMBL document CHEMBL4627248, “Emerging small-molecule therapeutic approaches for amyotrophic lateral sclerosis and frontotemporal dementia” (Bioorg Med Chem Lett, 2020)
